Data taken from publication doi:10.1101/2025.11.04.686469, “Discovery of Host-Directed Small Molecules with Broad Anti-Leishmanial Efficacy” (bioRxiv, 2025).

Key:
[1] = system: intracellular L. donovani amastigotes; assay: Luminescent-based evaluation of intracellular anti-leishmanial activity in THP-1 macrophages; type: cell-based, Leishmania donovani; details: intracellular Leishmania donovani in THP1 macrophages, luminescence assay (Supplemental Table 2); read-out: Lum IC50
Description: Luminescent strains, L. donovani LV82 expressing firefly luciferase (a kind gift from Dr. Abhay Satoskar, Ohio State University) and L. mexicana (NR-51210, ATCC) expressing renilla luciferase were used to evaluate the effect of the compounds in intracellular and extracellular conditions. Wild-type L. donovani LV82 (ATCC) were used for Giemsa staining based experiments. All parasites were cultured at 25°C and 5% CO2 in M199 media (Corning) supplemented with 10% FBS, 1% penicillin/streptomycin, and hemin (0.01 mg/mL), and used in experiments up to passage 15.
THP-1 cells were seeded in a 96 well plate (25,000 cells/well) overnight then differentiated with 150 nM phorbol 12-myristate 13-acetate (PMA) over 72 hours (Supplemental Figure 1). […] Briefly, promastigotes of a known cell density were resuspended in RPMI media (with 10% FBS, 1% P/S and 0.05 mM β-mercaptoethanol) and incubated with adhered THP-1 cells over 18 hours. After infection, cells were washed three times with fresh media to remove extracellular promastigotes.
Infected macrophages were then treated with compounds solubilized in DMSO ranging from 0.1-10 μM in concentrations. After 72 hours of treatment, the viability of the amastigotes within macrophages was determined using Promega firefly luminescence assay (Cat E1500) or Pierce Renilla luciferase assay (Cat 16166) for L. donovani and L. mexicana strains, respectively. Briefly, media was removed, and cells were lysed with the assay lysis buffer. The luciferase substrate was then incubated with the lysed cells for 10 min at room temperature and luminescence of live Leishmania was measured in a white opaque 96 well plate using a Biotek plate reader.

THP-1 macrophages = assay: Effect of compounds on host cell viability (MTT); type: cell-based; details: read-out: 24h LC50; THP1 macrophages, 24-hour incubation, MTT assay (Supplemental Table 2)
Summary of the method: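 Viability was read as MTT reduction: 2 h with 0.5 mg/mL, formazan dissolved in isopropanol, A560 with 670 nm background subtracted. The macrophages were PMA-differentiated THP-1 cells (150 nM, 72 h), treated 24 h at 1–50 μM or, for some compounds, 72 h at 1–300 μM.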

With `FC(F)(F)c1ccc(-c2ccc3ncn(-c4ccc(Br)cc4)c3c2)cc1` [Compound 136] the IC50 [1] was > 10 µM and the CC50 (THP-1 macrophages) was > 50 µM.

For `NCCCOc1ccc(CN2CCC(Oc3ccc(-n4nc(C(F)(F)F)cc4C4CCCCC4)cc3)CC2)cc1` [Compound 429], the IC50 [1] was 2.4 µM and the CC50 (THP-1 macrophages) was 12.1 µM.

With `FC(F)(F)c1ccc(-c2ccc(-c3cc(C(F)(F)F)nn3-c3ccc(OC4CCNC4)cc3)cc2)cc1` (stereo not shown) [Compound 144] the IC50 [1] was > 10 µM and the CC50 (THP-1 macrophages) was 5.4 µM.

With `CC(C)(C)OC(=O)NCC(=O)Nc1ccc(-n2cc(C(F)(F)F)nc2-c2ccc(C(C)(C)C)cc2)cc1` [Compound 151] the IC50 [1] was > 10 µM and the CC50 (THP-1 macrophages) was 31.8 µM.

Work on `FC(F)(F)c1cc(C2CCCCC2)n(-c2ccc(NC3CNC3)cc2)n1` [Compound 394] yielded an IC50 [1] of 5.5 µM and a CC50 (THP-1 macrophages) of 30.9 µM.

`CC(C)(C)c1nc(C(F)(F)F)cn1-c1ccc(NC2CCNC2)cc1` (stereo not shown) [Compound 330] was tested, and the IC50 [1] was 6.2 µM and the CC50 (THP-1 macrophages) was > 50 µM.

`Fc1cccc(CN2CCN(c3ccc(-n4nc(C(F)(F)F)cc4-c4ccc(-c5ccc(C(F)(F)F)cc5)cc4)cc3)CC2)c1` [Compound 222] was tested, and the IC50 [1] was > 10 µM and the CC50 (THP-1 macrophages) was > 50 µM.

Work on `FC(F)(F)c1ccc(-c2cc(C(F)(F)F)nn2-c2ccc(NC3CCNC3)cc2)cc1` (stereo not shown) [Compound 252] yielded an IC50 [1] of 2.3 µM and a CC50 (THP-1 macrophages) of 14.4 µM.

Work on `NCC(=O)Nc1ccc(-n2nc(C(F)(F)F)cc2C2CCCCC2)cc1` [Compound 341] yielded an IC50 [1] of 4 µM and a CC50 (THP-1 macrophages) of 26.5 µM.

`CC(=O)NCCOCCN1CCC(Oc2ccc(-n3nc(C(F)(F)F)cc3C3CCCCC3)cc2)CC1` [Compound 427] showed an IC50 [1] of 6.1 µM and a CC50 (THP-1 macrophages) of 29.5 µM.

For `Nc1ccc(-n2cnc3ccccc32)cc1` [Compound 147], the IC50 [1] was > 10 µM and the CC50 (THP-1 macrophages) was > 50 µM.

For `Oc1ccc(CN2CCC(Nc3ccc(-n4nc(C(F)(F)F)cc4C4CCCCC4)cc3)CC2)cc1` [Compound 392], the IC50 [1] was 4.7 µM and the CC50 (THP-1 macrophages) was 25.9 µM.

`NC1CCN(c2ccc(-n3nc(C(F)(F)F)cc3-c3ccncc3)cc2)C1` (stereo not shown) [Compound 168] was tested, and the IC50 [1] was 10 µM and the CC50 (THP-1 macrophages) was > 50 µM.

`FC(F)(F)c1cc(C2CCCCC2)n(-c2ccc(NC3CN(Cc4ccccc4)C3)cc2)n1` [Compound 395] was tested, and the IC50 [1] was 7.6 µM and the CC50 (THP-1 macrophages) was 37.4 µM.

Work on `FC(F)(F)c1ccc(-c2ccc(-c3cc(C(F)(F)F)nn3-c3ccc(N4CCC(NCc5ccccc5)CC4)cc3)cc2)cc1` [Compound 89] yielded an IC50 [1] of 4 µM and a CC50 (THP-1 macrophages) of 8 µM.

In the case of `N#Cc1ccc(CN2CC(Nc3ccc(-n4nc(C(F)(F)F)cc4C4CCCCC4)cc3)C2)cc1` [Compound 397], the IC50 [1] is reported as 8.1 µM and the CC50 (THP-1 macrophages) is reported as 27.6 µM.

`CC(C)(C)c1cc(C(F)(F)F)nn1-c1ccc(Br)cc1` [Compound 201] was tested, and the IC50 [1] was > 10 µM and the CC50 (THP-1 macrophages) was > 50 µM.

`O=[N+]([O-])c1cccc(-n2nc(C(F)(F)F)cc2-c2ccc(-c3ccc(C(F)(F)F)cc3)cc2)c1` [Compound 189] was tested, and the IC50 [1] was > 10 µM and the CC50 (THP-1 macrophages) was > 50 µM.

Work on `NC1CCN(c2ccc(-n3ccnc3-c3ccc(-c4ccccc4)cc3)cc2)C1` (stereo not shown) [Compound 83] yielded an IC50 [1] of 1.8 µM and a CC50 (THP-1 macrophages) of 6.2 µM.

With `FC(F)(F)Oc1ccc(-n2cc(C(F)(F)F)nc2-c2ccc(-c3ccccc3)cc2)cc1` [Compound 183] the IC50 [1] was > 10 µM and the CC50 (THP-1 macrophages) was > 50 µM.

`CC(C)C#Cc1ccc(-c2cc(C(F)(F)F)nn2-c2ccc(N3CCC(N)C3)cc2)cc1` (stereo not shown) [Compound 98] was tested, and the IC50 [1] was > 10 µM and the CC50 (THP-1 macrophages) was 19.5 µM.

Compound `FC(F)(F)c1cc(C2CCCCC2)n(-c2ccc(N3CCC(NCc4ccccc4)C3)cc2)n1` (stereo not shown) [Compound 364] has an IC50 [1] of 6.8 µM and a CC50 (THP-1 macrophages) of 31.1 µM.

With `FC(F)(F)c1cc(C2CCCCC2)n(-c2ccc(NC3CCNCC3)cc2)n1` [Compound 339] the IC50 [1] was 1.7 µM and the CC50 (THP-1 macrophages) was 18.2 µM.

In the case of `CC(C)(C)c1ccc(-c2nc(C(F)(F)F)cn2-c2ccc([N+](=O)[O-])cc2)cc1` [Compound 146], the IC50 [1] is reported as 4.4 µM and the CC50 (THP-1 macrophages) is reported as > 50 µM.

With `COc1ccc(-n2cc(C(F)(F)F)nc2-c2ccc(-c3ccccc3)cc2)cc1` [Compound 245] the IC50 [1] was > 10 µM and the CC50 (THP-1 macrophages) was > 50 µM.

For `FC(F)(F)c1cn(-c2ccc(Br)cc2)c(-c2ccc(Oc3ccccc3)cc2)n1` [Compound 219], the IC50 [1] was > 10 µM and the CC50 (THP-1 macrophages) was > 50 µM.
